According to patent US11260083B2, “Compositions and methods for treating and preventing graft versus host disease” (The Regents of the University of Michigan, priority 2016, dated 2022):

How the values were obtained:
Type in all cases: in vivo, mouse
[1] = tested on: C3H.SW (H-2b) → C57BL/6J (H-2b) BMT recipients; assay: MHC-matched, minor antigen mismatched BMT model with butyrate
Protocol: BMTs were performed as previously described (Reddy, P. et al. A crucial role for antigen-presenting cells and alloantigen expression in graft-versus-leukemia responses. Nat. Med. 11, 1244-1249 (2005); 15). Briefly, syngeneic (BALB/c→BALC/c or C57BL/6J→C57BL/6J) and allogeneic (C57BL/6J→BALB/c or C3H.sw→C57BL/6J) recipients received lethal irradiation. On day −1, BALB/c recipients received a total of 800 cGy of irradiation (split dose separated by 3 hours) and B6 animals received a single dose of 1000 cGy. […] Survival was monitored daily and the recipient body weight and GVHD clinical scores were determined weekly, as described previously42. […]
Systemic administration of HDACi decreases acute GVHD (Reddy, P. et al. Histone deacetylase inhibitor suberoylanilide hydroxamic acid reduces acute graft-versus-host disease and preserves graft-versus-leukemia effect. Proc Natl Acad Sci USA 101, 3921-3926 (2004); Reddy, P. et al. Histone deacetylase inhibition modulates indoleamine 2,3-dioxygenasedependent DC functions and regulates experimental graft-versus-host disease in mice. J. Clin. Invest. 118, 2562-2573 (2008); Sun, Y. et al. Cutting edge: Negative regulation of dendritic cells through acetylation of the nonhistone protein STAT-3. J Immunol 182, 5899-5903 (2009)). It was therefore determined if increasing local levels of endogenous HDACi, butyrate, would impact GVHD severity. […]

[2] = tested on: parent (C57BL/6J) into F1 (B6D2F1) BMT recipients; assay: Non-irradiated parent into F1 BMT model with butyrate; conditions: intragastric butyrate
[3] = tested on: CD326+ intestinal epithelial cells (IECs); assay: Western blot / qPCR of CD326+ IECs isolated from BMT recipients
Protocol: CD326+ purified IECs were harvested from animals that received syngeneic (BALB/c→BALB/c) or allogeneic (C57BL/6J→BALB/c) BMT. Whole cell lysates were next obtained and protein concentrations determined with Pierce BCA Protein Assay (Thermo Scientific). Equal amounts of protein (20 μg) were separated by SDS-PAGE gel electrophoresis (120V, 1.5 h) and subsequently transferred to polyvinylidene difluoride (PVDF) membrane using a Bio-Rad semi-dry transfer cell (Hercules, Calif.) (20V, lh). The following antibodies were used to analyze the membranes with dilutions in accordance with the manufacturers specification sheet: α-tubulin (Cell Signaling, clone 11H10), Acetyl histone H4 (Lys5/8/12/16) (EMD Millipore, clone 3HH-4C10), SLC5A8 (abcam), GPR43 (abcam), Occludin (abcam, clone EPR8208), JAM (abcam, clone EP1042Y), and Claudin 5 (abcam). Secondary anti-rabbit antibody conjugated to HRP (Jackson ImmunoResearch, Cat No. 111-035-003) was used to detect primary antibodies, where needed. Densitometric analysis was performed using ImageJ software (National Institutes of Health; Bethesda, […].).
mRNA was isolated from samples using RNeasy kit following manufacturers instructions (Qiagen; Venlo, Netherlands). Using 1 μg of each mRNA template, cDNA was synthesized using SuperScript VILO (Invitrogen; Carlsbad, Calif.). qPCR primers were designed for murine targets. All primers were verified for the production of a single specific PCR product using a melting curve program and are shown below in Table 2.
It was next determined if the reduced amount of butyrate in IECs could be restored in vivo and further, whether this would have a functional impact on histone acetylation. In addition to utilizing transporters, butyrate can also diffuse across the mucosal barrier into IECs when present in high concentrations (Ganapathy, V., Thangaraju, M., Prasad, P. D., Martin, P. M. & Singh, N. Transporters and receptors for short-chain fatty acids as the molecular link between colonic bacteria and the host. Curr Opin Pharmacol 13, 869-874 (2013); Charney, A. N., Micic, L. & Egnor, R. W. Nonionic diffusion of short-chain fatty acids across rat colon. Am. J Physiol. 274, G518-24 (1998)). Therefore, it was hypothesized that administration of high amounts of butyrate locally would restore histone acetylation of IECs, in vivo. To test this, C57BL/6J cells were transferred to Balb/c mice and administered vehicle or butyrate via daily intragastric gavage.
To determine if these are involved in in vivo protection from GVHD, the expression of pro- and anti-apoptotic proteins as well as junctional proteins in IECs isolated 21 days following allo-BMT was determined. […] Overall, the results identify several ways in which butyrate can directly enhance epithelial cell function ranging from protection from irradiation and allo-T cell mediated apoptosis to proliferation and junctional protein expression, both in vitro and in vivo.

GI-barrier = assay: FITC-dextran assay (intestinal permeability); conditions: 21 days following transplant; butyrate-treated vs vehicle allo-BMT recipients
Protocol: Food and water was withheld from all mice for four hours on day 21 post bone marrow transplant. FITC-dextran (Sigma-Aldrich; St. Louis, Mo.) was administered by 20G-1.5″ flexible intragastric gavage needle (Braintree Scientific; Braintree, Mass.) at a concentration of 50 mg/ml in PBS. BMT recipients received 800 mg/kg (˜16 mg/mouse). Four hours later, serum was collected from peripheral blood, diluted 1:1 with PBS, and analyzed on a plate reader at excitation/emission wavelength of 485 nm/535 nm. Concentrations of FITCdextran experimental samples were determined based on a standard curve.
Intestinal permeability after allo-BMT was assessed by intragastric administration of FITC-dextran, a non-metabolized carbohydrate (Hanash, A. M. et al. Interleukin-22 protects intestinal stem cells from immune-mediated tissue damage and regulates sensitivity to graft versus host disease. Immunity 37, 339-350 (2012)).

[4] = 21 days following allo-BMT, intragastric butyrate

SMILES: CCCC(=O)[O-].[Na+] [butyrate, sodium butyrate]
- histological scores in both the intestines and liver ([1]; 21 days following BMT, minor antigen mismatch): decreased histological scores
- survival ([1]; minor antigen mismatched model): improved survival
- survival [2]: improved survival
- weight loss [2]: Significantly less weight loss
- gene expression of junctional proteins in IECs ([3]; 21 days following allo-BMT, butyrate treated animals): similarly increased
- BCL-B (Bcl2110) expression in IECs [3, 4]: increased
- transcripts of Bak1 in IECs [3, 4]: significantly decreased
- transcripts of Bax in IECs [3, 4]: significantly decreased
- acetylation of histone H4 in IECs ([3]; C57BL/6J→Balb/c, daily intragastric butyrate for 21 days, vs untreated allo-BMT recipients): significantly restored
- butyrate transporter SLC5A8 in IECs ([3]; daily intragastric gavage of butyrate): increase
- protein amounts of Occludin, JAM and Claudin 5 (immunoblot) ([3]; recipients of allo-BMT treated with intragastric butyrate): increased junctional proteins
- detectable FITC-dextran in the serum (GI-barrier): significantly less
